In publication PMC10353187, “Discovery of a new potent oxindole multi-kinase inhibitor among a series of designed 3-alkenyl-oxindoles with ancillary carbonic anhydrase inhibitory activity as antiproliferative agents” (BMC Chemistry, 2023):

Legend:
Test in all cases: Z'-LYTE kinase inhibition assay (SelectScreen)
Assay type in all cases: biochemical
[1] = target: T1, FGFR 1 (Homo sapiens, UniProt P11362)
T1 construct: purchased Thermo Fischer Scientific (SelectScreen service)
Procedure: (§1) To test the potential kinase inhibitory activity of compound 15c, initial single dose testing was performed at 10 μM on a panel of kinases and their inhibition % were determined.
(§2) […]. Additional file 1; S3: In vitro biological activity).
(§3) The FGFR, VEGFR-2 and RET tyrosine kinase assays were carried out at Thermo Fischer Scientific, USA (www.thermofischer.com/selectscreen). (For further details see Additional file 1; S3: In vitro biological activity).
(§4) The FGFR, VEGFR-2 and RET tyrosine kinase assays were performed at Thermo Fischer Scientific, USA (www.thermofischer.com/selectscreen). The assay was performed to evaluate the inhibitory activity of the designed compound applying the Z'-LYTE biochemical assay employing a fluorescence-based, coupled-enzyme format based on the differential sensitivity of phosphorylate and non-phosphorylate peptides to the proteolytic cleavage. The peptide substrate is characterized with two fluorophores, one at each end, that make up a FRET pair ^9.
(§5) The Z´-LYTE biochemical assay employs a fluorescence-based, coupled-enzyme format and is based on the differential sensitivity of phosphorylated and non-phosphorylated peptides to proteolytic cleavage. The peptide substrate is labeled with two fluorophores—one at each end—that make up a FRET pair. In the primary reaction, the kinase transfers the gamma-phosphate of ATP to a single tyrosine, serine or threonine residue in a synthetic FRET-peptide. In the secondary reaction, a site-specific protease recognizes and cleaves non-phosphorylated FRET-peptides. Phosphorylation of FRET-peptides suppresses cleavage by the Development Reagent. Cleavage disrupts FRET between the donor (i.e., coumarin) and acceptor (i.e., fluorescein) fluorophores on the FRET-peptide, whereas uncleaved, phosphorylated FRET-peptides maintain FRET. A ratiometric method, which calculates the ratio (the Emission Ratio) of donor emission to acceptor emission after excitation of the donor fluorophore at 400 nm, is used to quantitate reaction progress, as shown in the equation below. A significant benefit of this ratiometric method for quantitating reaction progress is the elimination of wellto-well variations in FRET-peptide concentration and signal intensities. […]. Both cleaved and uncleaved FRET-peptides contribute to the fluorescence signals and therefore to the Emission Ratio. The extent of phosphorylation of the FRET-peptide can be calculated from the Emission Ratio. The Emission Ratio will remain low if the FRET-peptide is phosphorylated (i.e., no kinase inhibition) and will be high if the FRET-peptide is non-phosphorylated (i.e., kinase inhibition).
(§6) Test Compounds the Test Compounds are screened in 1% DMSO (final) in the well. For 10 point titrations, 3-fold serial dilutions are conducted from the starting concentration of the customer’s choosing. Peptide/Kinase Mixtures All Peptide/Kinase Mixtures are diluted to a 2X working concentration in the appropriate Kinase Buffer (see section Kinase Specific Assay Conditions for a complete description). ATP Solution All ATP Solutions are diluted to a 4X working concentration in Kinase Buffer (50 mM HEPES pH 7.5, 0.01% BRIJ-35, 10 mM MgCl2, 1 mM EGTA). ATP Km apparent is previously determined using a Z´-LYTE assay.

[2] = target: T2, RET (Homo sapiens, UniProt P07949)
T2 construct: purchased Thermo Fischer Scientific (SelectScreen service)
Procedure: as §1, §2, §3, §4, §5, §6

[3] = target: T3, VEGFR 2(KDR) (Homo sapiens, UniProt P35968)
T3 construct: purchased Thermo Fischer Scientific (SelectScreen service)
Procedure: as §1, §2, §3, §4, §5, §6

[4] = target: T4, BRAF (Homo sapiens, UniProt P15056)
T4 construct: purchased Thermo Fischer Scientific (SelectScreen service)
Procedure: as §1, §3, §4, §5, §6

[5] = target: T5, Kit (Homo sapiens, UniProt P10721)
T5 construct: purchased Thermo Fischer Scientific (SelectScreen service)
Procedure: as §1, §3, §4, §5, §6

[6] = target: T6, PDGFRA (PDGFR alpha) (Homo sapiens, UniProt P16234)
T6 construct: purchased Thermo Fischer Scientific (SelectScreen service)
Procedure: as §1, §3, §4, §5, §6

[7] = target: T7, VEGFR 1(FLT1) (Homo sapiens, UniProt P17948)
T7 construct: purchased Thermo Fischer Scientific (SelectScreen service)
Procedure: as §1, §3, §4, §5, §6

[8] = target: T8, c-Met (Homo sapiens, UniProt P08581)
T8 construct: purchased Thermo Fischer Scientific (SelectScreen service)
Procedure: as §1, §3, §4, §5, §6

[9] = five concentrations 10 nM–100 μM

T1 sequence (P11362 22-822): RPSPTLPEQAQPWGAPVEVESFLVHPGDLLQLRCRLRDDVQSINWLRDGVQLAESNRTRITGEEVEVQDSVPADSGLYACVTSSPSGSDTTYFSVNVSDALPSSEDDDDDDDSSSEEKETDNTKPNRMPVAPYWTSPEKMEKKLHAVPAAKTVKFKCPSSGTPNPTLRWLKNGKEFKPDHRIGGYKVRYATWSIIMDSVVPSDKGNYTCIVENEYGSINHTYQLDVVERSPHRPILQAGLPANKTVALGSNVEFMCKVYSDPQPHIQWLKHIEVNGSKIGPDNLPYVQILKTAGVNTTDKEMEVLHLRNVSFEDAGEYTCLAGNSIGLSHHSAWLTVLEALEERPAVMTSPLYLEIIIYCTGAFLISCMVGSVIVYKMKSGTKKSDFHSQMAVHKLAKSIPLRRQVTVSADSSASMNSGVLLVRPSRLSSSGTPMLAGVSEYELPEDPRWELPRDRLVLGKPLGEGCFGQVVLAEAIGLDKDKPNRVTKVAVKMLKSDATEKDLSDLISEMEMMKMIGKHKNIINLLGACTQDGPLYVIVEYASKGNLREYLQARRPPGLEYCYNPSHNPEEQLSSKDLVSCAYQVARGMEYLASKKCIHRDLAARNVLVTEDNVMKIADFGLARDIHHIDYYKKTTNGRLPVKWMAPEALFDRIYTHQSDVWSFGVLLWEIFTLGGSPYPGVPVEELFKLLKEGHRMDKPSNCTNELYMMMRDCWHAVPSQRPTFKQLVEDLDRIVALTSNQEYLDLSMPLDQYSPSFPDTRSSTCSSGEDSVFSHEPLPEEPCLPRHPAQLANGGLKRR
T2 sequence (P07949 29-1114): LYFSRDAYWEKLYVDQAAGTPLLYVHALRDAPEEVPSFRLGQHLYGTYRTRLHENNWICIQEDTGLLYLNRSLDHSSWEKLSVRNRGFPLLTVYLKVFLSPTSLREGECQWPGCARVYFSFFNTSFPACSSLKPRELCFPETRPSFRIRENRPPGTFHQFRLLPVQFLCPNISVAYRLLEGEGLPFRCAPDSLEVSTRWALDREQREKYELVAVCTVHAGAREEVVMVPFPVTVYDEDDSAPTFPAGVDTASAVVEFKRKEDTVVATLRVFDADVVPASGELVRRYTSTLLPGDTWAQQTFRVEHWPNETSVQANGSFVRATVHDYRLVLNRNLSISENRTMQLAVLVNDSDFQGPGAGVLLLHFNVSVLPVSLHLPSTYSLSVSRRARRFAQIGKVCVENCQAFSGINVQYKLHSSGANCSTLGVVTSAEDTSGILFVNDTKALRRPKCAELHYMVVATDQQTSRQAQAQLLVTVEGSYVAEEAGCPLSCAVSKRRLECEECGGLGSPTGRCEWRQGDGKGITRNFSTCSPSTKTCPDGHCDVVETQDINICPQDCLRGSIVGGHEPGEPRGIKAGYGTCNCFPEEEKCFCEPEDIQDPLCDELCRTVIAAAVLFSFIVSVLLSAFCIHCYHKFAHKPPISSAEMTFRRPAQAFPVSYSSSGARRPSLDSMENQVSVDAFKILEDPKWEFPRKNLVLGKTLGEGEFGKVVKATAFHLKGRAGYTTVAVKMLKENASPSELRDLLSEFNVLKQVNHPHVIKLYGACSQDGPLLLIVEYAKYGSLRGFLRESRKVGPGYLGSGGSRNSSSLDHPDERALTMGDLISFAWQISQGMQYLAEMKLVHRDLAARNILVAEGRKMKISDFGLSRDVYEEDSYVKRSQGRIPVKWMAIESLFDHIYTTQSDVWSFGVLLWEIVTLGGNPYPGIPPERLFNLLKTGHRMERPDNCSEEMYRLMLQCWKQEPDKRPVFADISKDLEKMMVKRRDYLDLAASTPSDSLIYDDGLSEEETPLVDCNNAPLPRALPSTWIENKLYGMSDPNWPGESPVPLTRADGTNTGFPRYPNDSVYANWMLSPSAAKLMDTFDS
T3 sequence (P35968 20-1356): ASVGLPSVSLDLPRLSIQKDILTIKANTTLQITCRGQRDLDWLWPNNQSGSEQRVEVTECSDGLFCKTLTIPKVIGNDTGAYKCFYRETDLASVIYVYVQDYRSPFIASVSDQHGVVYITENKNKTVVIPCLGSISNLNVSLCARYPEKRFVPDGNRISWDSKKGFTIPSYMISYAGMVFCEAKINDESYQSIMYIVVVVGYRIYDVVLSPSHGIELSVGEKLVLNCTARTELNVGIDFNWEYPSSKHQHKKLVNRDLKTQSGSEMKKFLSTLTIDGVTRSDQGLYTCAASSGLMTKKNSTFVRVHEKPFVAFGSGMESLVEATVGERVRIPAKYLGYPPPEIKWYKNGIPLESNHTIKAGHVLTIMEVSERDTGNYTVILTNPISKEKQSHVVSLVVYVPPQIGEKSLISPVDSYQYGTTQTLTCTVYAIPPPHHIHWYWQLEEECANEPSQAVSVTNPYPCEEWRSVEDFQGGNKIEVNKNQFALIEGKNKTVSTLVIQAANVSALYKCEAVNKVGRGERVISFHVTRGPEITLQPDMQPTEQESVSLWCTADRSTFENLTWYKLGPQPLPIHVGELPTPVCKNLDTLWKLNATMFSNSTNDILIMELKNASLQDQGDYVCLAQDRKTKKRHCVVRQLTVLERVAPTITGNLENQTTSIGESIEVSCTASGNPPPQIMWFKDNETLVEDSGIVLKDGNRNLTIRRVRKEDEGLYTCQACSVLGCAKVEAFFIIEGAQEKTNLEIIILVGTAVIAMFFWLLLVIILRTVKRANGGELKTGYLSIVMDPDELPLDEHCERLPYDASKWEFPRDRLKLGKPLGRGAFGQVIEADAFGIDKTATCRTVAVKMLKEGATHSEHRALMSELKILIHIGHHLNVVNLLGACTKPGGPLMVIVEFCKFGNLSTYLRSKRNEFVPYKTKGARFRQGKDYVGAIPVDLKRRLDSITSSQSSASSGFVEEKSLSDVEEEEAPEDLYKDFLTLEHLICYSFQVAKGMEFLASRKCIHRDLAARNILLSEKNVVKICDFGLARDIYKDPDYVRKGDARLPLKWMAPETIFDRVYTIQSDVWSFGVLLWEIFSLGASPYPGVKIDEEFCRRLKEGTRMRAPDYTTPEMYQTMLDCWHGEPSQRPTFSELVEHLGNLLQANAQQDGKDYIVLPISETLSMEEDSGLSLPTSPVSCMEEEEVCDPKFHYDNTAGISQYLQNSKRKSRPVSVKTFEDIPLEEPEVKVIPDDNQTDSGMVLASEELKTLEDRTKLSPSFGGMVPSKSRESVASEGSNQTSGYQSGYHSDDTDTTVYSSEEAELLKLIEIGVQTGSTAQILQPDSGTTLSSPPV
T4 sequence (P15056 whole entry): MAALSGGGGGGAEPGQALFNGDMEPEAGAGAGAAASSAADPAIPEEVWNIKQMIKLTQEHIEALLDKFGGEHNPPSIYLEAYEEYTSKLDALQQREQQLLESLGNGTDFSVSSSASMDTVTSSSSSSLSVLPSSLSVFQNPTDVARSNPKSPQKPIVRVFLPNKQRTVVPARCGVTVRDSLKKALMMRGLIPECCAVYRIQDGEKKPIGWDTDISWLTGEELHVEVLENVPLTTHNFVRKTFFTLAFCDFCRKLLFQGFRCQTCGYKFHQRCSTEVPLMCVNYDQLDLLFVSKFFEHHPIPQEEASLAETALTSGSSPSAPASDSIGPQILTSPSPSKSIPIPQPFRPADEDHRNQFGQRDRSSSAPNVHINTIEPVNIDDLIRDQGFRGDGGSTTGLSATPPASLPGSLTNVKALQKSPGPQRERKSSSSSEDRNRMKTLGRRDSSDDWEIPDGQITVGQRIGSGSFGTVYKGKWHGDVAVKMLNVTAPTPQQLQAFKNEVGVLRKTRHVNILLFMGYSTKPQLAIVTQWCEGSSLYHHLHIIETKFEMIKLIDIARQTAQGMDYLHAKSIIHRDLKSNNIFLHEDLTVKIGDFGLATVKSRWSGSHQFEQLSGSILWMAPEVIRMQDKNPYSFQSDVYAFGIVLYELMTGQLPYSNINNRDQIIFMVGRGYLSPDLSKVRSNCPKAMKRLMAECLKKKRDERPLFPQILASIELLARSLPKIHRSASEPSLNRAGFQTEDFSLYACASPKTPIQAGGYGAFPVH
T6 sequence (P16234 24-1089): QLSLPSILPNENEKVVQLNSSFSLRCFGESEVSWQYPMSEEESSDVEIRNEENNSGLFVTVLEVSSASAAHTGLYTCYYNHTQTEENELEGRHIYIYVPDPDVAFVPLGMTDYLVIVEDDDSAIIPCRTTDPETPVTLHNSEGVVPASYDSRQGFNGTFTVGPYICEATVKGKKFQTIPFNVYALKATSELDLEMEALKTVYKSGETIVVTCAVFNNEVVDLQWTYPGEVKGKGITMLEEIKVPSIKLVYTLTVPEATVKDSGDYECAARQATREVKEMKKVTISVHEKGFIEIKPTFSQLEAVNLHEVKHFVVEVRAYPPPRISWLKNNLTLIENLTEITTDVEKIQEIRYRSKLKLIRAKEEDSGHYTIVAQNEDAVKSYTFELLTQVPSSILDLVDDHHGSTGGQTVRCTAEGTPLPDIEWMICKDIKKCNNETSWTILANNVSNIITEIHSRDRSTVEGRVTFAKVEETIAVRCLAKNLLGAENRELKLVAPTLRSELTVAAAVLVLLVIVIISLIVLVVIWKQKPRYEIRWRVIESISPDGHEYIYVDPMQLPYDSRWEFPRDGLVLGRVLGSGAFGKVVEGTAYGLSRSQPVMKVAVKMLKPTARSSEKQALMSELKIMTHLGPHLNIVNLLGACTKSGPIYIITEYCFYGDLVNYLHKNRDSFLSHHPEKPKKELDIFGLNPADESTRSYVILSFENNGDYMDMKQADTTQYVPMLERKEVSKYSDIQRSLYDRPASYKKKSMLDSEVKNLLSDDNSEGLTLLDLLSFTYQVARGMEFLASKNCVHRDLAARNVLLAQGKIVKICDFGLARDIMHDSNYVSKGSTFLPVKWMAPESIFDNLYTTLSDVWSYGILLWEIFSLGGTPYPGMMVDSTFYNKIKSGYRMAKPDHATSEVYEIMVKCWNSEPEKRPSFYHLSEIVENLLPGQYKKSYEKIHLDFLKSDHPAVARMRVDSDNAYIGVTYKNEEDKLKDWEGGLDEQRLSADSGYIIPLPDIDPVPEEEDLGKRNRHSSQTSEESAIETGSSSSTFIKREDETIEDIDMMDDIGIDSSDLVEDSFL

O=C(Nc1ccc(NC=C2C(=O)Nc3ccccc32)cc1)Nc1nccs1 [Compound 15c, 1-{4-[((2-Oxoindolin-3-ylidene)methyl)amino]phenyl}-3-(thiazol-2-yl)urea]
inhibition at 10 µM ([1]; 10 uM): 74%
IC50 [1, 9]: 1290 nM
inhibition at 10 µM ([2]; 10 uM): 74%
IC50 [2, 9]: 1190 nM
inhibition at 10 µM ([3]; 10 uM): 73%
IC50 [3, 9]: 117 nM
inhibition at 10 µM [4]: 69%
inhibition at 10 µM [5]: 31%
inhibition at 10 µM [6]: 59%
inhibition at 10 µM [7]: 40%
inhibition at 10 µM [8]: 62%
